# Reference: patent publication US20050222183A1, “Combination of zd6474, an inhibitor of the vascular endothelial growth factor receptor, with radiotherapy in the treatment of cancer” (priority 2002, published 2005)
# What was measured:
# [1] = tested on: Calu-6 tumours; test: Calu-6 xenograft model: schedules, ZD6474 50 mg/kg concurrent or sequential with radiotherapy; assay type: in vivo, mice; conditions: for Growth delay (days ± SE): RTV4 relative to control
# Experimental: In an analogous experiment using the Calu-6 xenograft model described hereinbefore different schedules were investigated.
# Mice bearing Calu-6 tumours (220-300 mm^3) were randomized into groups of eight, to receive either ZD6474 (50 mg/kg p.o. once daily) or vehicle only (1% polysorbate in deionized water) for the duration of the experiment. ZD6474, or vehicle, was also administered with or without radiotherapy (3×2 Gy at 24-hour intervals during the first 3 days of treatment). Where mice received 50 mg/kg ZD6474 plus radiation therapy, two treatment schedules were examined. • a) Concurrent combination treatment: ZD6474 dosing given 2 hours prior to the first dose of radiation; and • b) Sequential combination treatment: ZD6474 dosing given 30 minutes after the last dose of radiotherapy. […]
# Treatment efficacy was assessed by measuring the time for tumours to quadruple in volume (RTV4) from their pretreatment size and calculating the relative growth delay (i.e. comparing RTV4 values from individual treated groups, with that of the control).
# [2] = tested on: Calu-6 (lung carcinoma) tumour xenografts; test: Calu-6 xenograft model: ZD6474 25 mg/kg given after ionising radiation; assay type: in vivo, female Alderley Park nude mice
# Experimental: Calu-6 (lung carcinoma) cells were obtained from the American Type Culture Collection (Manassas, Va.). All cell culture reagents, where not specified, were obtained from Life Technologies, Paisley, UK. Cells were maintained as exponentially growing monolayers in Eagle's Minimal Essential Medium (EMEM) containing 10% FCS (Labtech International, Ringmer, UK), 2 mM L-glutamine (Sigma Chemical Co., Poole, UK), 1% sodium pyruvate (100 mM) and 1% non-essential amino acids. Cells were periodically screened for the presence of microplasma in culture, and analysed for 15 types of virus in a mouse antibody production test (AstraZeneca Central Toxicology Laboratories, Alderley Park, UK) prior to routine use in vivo.
# Calu-6 cells (2×10^7 cells/ml) were prepared for implantation in a mixture of 50% (v/v) matrigel (Fred Baker, Liverpool, UK) in serum free Roswell Park Memorial Institute (RPMI)-1640 media. Tumour xenografts were established by subcutaneously injecting 0.1 ml of the cell suspension (i.e. 2×10^6 cells/mouse) into female Alderley Park nude mice (nu/nu genotype; 8-10 weeks of age). Once a palpable tumour was evident, tumour volume was assessed daily by calliper measurement and calculated using the formula, length×width×height.
# Mice were randomised into groups of eight, prior to treatment, when tumours measured 225-315 mm^3. Ionising radiation, where given, was administered at a dose rate of 2 Gy per min to unanaesthetised mice restrained in polyvinyl jigs with lead shielding and a cut away section to allow local irradiation of the tumour by the unilateral beam (Pantac X-ray set). Jigs were turned through 180° halfway through the radiation exposure time to provide a uniform dosing. Radiation was administered either as a single dose (5 Gy on day 1) or by multiple daily dosing (2 Gy/day on days 1-3). Thirty minutes after the last dose of radiation, ZD6474 (25 mg/kg), or vehicle, was administered by oral gavage (0.1 ml/10 g body weight) and then once-daily thereafter for a further 13 days (i.e. 14 days of oral treatment in total). ZD6474 was prepared as a suspension in 1% polysorbate 80 (i.e. a 1% (v/v) solution of polyoxyethylene (20) sorbitan mono-oleate in deionised water). Mice were humanely killed when the relative volume of their tumour reached four times that at the initiation of therapy (RTV4). A two-tailed two-sample t-test was used to evaluate the significance of the results obtained.
smiles,measurement,setting,value
"COc1cc2c(Nc3ccc(Br)cc3F)ncnc2cc1OCC1CCN(C)CC1 [ZD6474, 4-(4-bromo-2-fluoroanilino)-6-methoxy-7-(1-methylpiperidin-4-ylmethoxy)quinazoline]",Growth delay of combination versus either single treatment,[1]; 50 mg/kg ZD6474 combined with 3×2 Gy radiation,significantly greater than that of either single treatment alone
same,RTV4 (days ± SE),"[1]; 50 mg/kg ZD6474 p.o. once daily, no radiation, n = 8",17 ± 1.0 days
same,Growth delay (days ± SE),"[1]; 50 mg/kg ZD6474 p.o. once daily, no radiation",9 ± 1.1 days
same,Growth delay (days ± SE),[1]; 3 × 2 Gy plus 50 mg/kg ZD6474 (concurrent),22 ± 1.1 days
same,RTV4 (days ± SE),[1]; 3 × 2 Gy plus 50 mg/kg ZD6474 (concurrent: dosing begun 2 hours prior to first dose of radiation),30 ± 1.0 days
same,Growth delay (days ± SE),[1]; 3 × 2 Gy plus 50 mg/kg ZD6474 (sequential),36 ± 1.0 days
same,RTV4 (days ± SE),[1]; 3 × 2 Gy plus 50 mg/kg ZD6474 (sequential: dosing begun 30 minutes after last dose of radiotherapy),44 ± 0.9 days
same,"Tumour growth inhibition, sequential versus concurrent combination",[1]; 3×2 Gy radiation and 50 mg/kg ZD6474,inhibited tumour growth significantly more than when the same agents were combined concurrently
same,Antitumour effect of sequential combination versus sum of individual therapies,[1]; sequential 3×2 Gy radiation and 50 mg/kg ZD6474,greater than the sum of the growth delays induced by the individual therapies
same,RTV4,"[2]; 3 × 2Gy (days 1-3), then ZD6474 25 mg/kg/day oral for 14 days post-irradiation",28.1 days
same,Therapeutic effect of radiation plus ZD6474 versus either therapy alone,[2]; 5 Gy or 3×2 Gy plus ZD6474 25 mg/kg,better therapeutic effect than either therapy alone
same,RTV4,"[2]; 5 Gy single dose on day 1, then ZD6474 25 mg/kg/day oral for 14 days post-irradiation",25.5 days
same,RTV4,"[2]; ZD6474 25 mg/kg/day oral for 14 days, no radiation, time for tumour to reach four times its volume at initiation of therapy",12.1 days
